pEC50: −log10 of the molar value. Numbered stars: 1 amine (or outer) side, 2 acyl side, 3 side chain; on linkers, the order of the positions; unused ones are H or OH. Bridge positions count the residues as written; N and C are the ends. Square brackets hold non-standard residues; d marks the D form. Side chains are listed from the residue outwards. Peptide text beside a SMILES is read from it. * marks the point of attachment. C20 diacid = O=C(O)CCCCCCCCCCCCCCCCCCC(=O)*; γGlu = O=C(O)[C@H](CCC(=O)[*:2])N[*:1]; Hyp = O=C(O)[C@@H]1C[C@@H](O)CN1; hArg = N=C(N)NCCCC[C@H](N)C(=O)O; Orn = NCCC[C@H](N)C(=O)O; Dab = NCC[C@H](N)C(=O)O; Dap = NC[C@H](N)C(=O)O
Target: T1, human amylin receptor (Homo sapiens, UniProt O60896+P30988)
T1 construct: host or cells: CHO-K1/Ga15/AMY3 cells, further stably transfected with a CRE-luciferase plasmid
T1 sequence (P30988 25-474): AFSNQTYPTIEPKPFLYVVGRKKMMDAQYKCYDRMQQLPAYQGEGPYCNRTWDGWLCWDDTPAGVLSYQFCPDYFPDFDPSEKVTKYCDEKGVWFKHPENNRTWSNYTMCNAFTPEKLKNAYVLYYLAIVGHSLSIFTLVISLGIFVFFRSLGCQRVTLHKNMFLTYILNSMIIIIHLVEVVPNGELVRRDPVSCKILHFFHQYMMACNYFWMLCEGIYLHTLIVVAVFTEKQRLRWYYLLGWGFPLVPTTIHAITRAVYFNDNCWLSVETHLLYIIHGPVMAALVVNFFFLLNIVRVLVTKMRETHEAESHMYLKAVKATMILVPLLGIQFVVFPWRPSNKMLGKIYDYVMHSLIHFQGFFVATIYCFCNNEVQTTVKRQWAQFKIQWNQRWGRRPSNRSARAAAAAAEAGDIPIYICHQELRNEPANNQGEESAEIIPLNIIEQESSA
T1 sequence (O60896 24-148 partner): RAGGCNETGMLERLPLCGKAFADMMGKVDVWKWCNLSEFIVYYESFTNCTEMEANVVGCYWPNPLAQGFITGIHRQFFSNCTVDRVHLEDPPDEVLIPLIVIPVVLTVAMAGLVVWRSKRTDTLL
Test: Luciferase assay of amylin derivatives in amylin receptor/CRE-luc CHO cell line
Assay type: cell-based
Details: CHO-K1/Ga15/AMY3 CRE-luc cells, 24 hours incubation, F12 medium containing 10% FBS; read-out: EC50
Protocol: The experiment was intended to detect the activity or efficacy of the amylin derivatives on a human amylin receptor in vitro by luciferase assay.
50 μL of growth medium (F12 medium containing 10% FBS) was added into each well of a white 96-well plate, and the stably transfected amylin/CRE-lue CHO cells were inoculated into the white 96-well plate at a density of about 20,000 cells/well for activity determination.

| pEC50 | SMILES |
| --- | --- |
| 10.57 | CC[C@H](C)[C@H](NC(=O)[C@@H]1CCCN1C(=O)[C@H](CCCCN)NC(=O)[C@H](CC(C)C)NC(=O)[C@H](CC(N)=O)NC(=O)[C@H](CC(N)=O)NC(=O)[C@H](CO)NC(=O)[C@H](CO)NC(=O)[C@H](Cc1c[nH]cn1)NC(=O)[C@H](CCCNC(=N)N)NC(=O)[C@H](CC(C)C)NC(=O)[C@H](Cc1ccccc1)NC(=O)[C@H](CC(=O)O)NC(=O)[C@H](C)NC(=O)[C@H](CC(C)C)NC(=O)[C@H](CCCNC(=N)N)NC(=O)[C@H](CCC(N)=O)NC(=O)[C@@H](NC(=O)[C@H](C)NC(=O)[C@@H]1CSSC[C@H](NC(=O)[C@@H](N)CCCCNC(=O)CC[C@H](NC(=O)CCCCCCCCCCCCCCCCCCC(=O)O)C(=O)O)C(=O)N[C@@H](CC(N)=O)C(=O)N[C@@H]([C@@H](C)O)C(=O)N[C@@H](C)C(=O)N[C@@H]([C@@H](C)O)C(=O)N1)[C@@H](C)O)C(=O)N[C@@H](CC(C)C)C(=O)N1CCC[C@H]1C(=O)N1CCC[C@H]1C(=O)N[C@H](C(=O)N[C@@H](CC(N)=O)C(=O)N[C@H](C(=O)NCC(=O)N[C@@H](CO)C(=O)N[C@@H](CC(N)=O)C(=O)N[C@H](C(=O)N1C[C@H](O)C[C@H]1C(N)=O)[C@@H](C)O)C(C)C)[C@@H](C)O [PD072] (H-K([γGlu-C20 diacid])CNTATCATQRLADFLRHSSNNLKPILPPTNVGSNT[Hyp]-NH2; disulfide 2-7) |
| 10.20 | CC[C@H](C)[C@H](NC(=O)[C@@H]1CCCN1C(=O)[C@H](CCCCNC(=O)CC[C@H](NC(=O)CCCCCCCCCCCCCCCCCCC(=O)O)C(=O)O)NC(=O)[C@H](CC(C)C)NC(=O)[C@H](CC(N)=O)NC(=O)[C@H](CC(N)=O)NC(=O)[C@H](CO)NC(=O)[C@H](CO)NC(=O)[C@H](Cc1c[nH]cn1)NC(=O)[C@H](CCCNC(=N)N)NC(=O)[C@H](CC(C)C)NC(=O)[C@H](Cc1ccccc1)NC(=O)[C@H](CC(=O)O)NC(=O)[C@H](C)NC(=O)[C@H](CC(C)C)NC(=O)[C@H](CCCNC(=N)N)NC(=O)[C@H](CCC(N)=O)NC(=O)[C@@H](NC(=O)[C@H](C)NC(=O)[C@@H]1CSSC[C@H](NC(=O)[C@@H](N)CN)C(=O)N[C@@H](CC(N)=O)C(=O)N[C@@H]([C@@H](C)O)C(=O)N[C@@H](C)C(=O)N[C@@H]([C@@H](C)O)C(=O)N1)[C@@H](C)O)C(=O)N[C@@H](CC(C)C)C(=O)N1CCC[C@H]1C(=O)N1CCC[C@H]1C(=O)N[C@H](C(=O)N[C@@H](CC(N)=O)C(=O)N[C@H](C(=O)NCC(=O)N[C@@H](CO)C(=O)N[C@@H](CC(N)=O)C(=O)N[C@H](C(=O)N1C[C@H](O)C[C@H]1C(N)=O)[C@@H](C)O)C(C)C)[C@@H](C)O [PD073] (H-[Dap]CNTATCATQRLADFLRHSSNNLK([γGlu-C20 diacid])PILPPTNVGSNT[Hyp]-NH2; disulfide 2-7) |
| 10.18 | CC[C@H](C)[C@H](NC(=O)[C@@H]1CCCN1C(=O)[C@H](CCCCNC(=O)CC[C@H](NC(=O)CCCCCCCCCCCCCCCCCCC(=O)O)C(=O)O)NC(=O)[C@H](CC(C)C)NC(=O)[C@H](CC(N)=O)NC(=O)[C@H](CC(N)=O)NC(=O)[C@H](CO)NC(=O)[C@H](CO)NC(=O)[C@H](Cc1c[nH]cn1)NC(=O)[C@H](CCCNC(=N)N)NC(=O)[C@H](CC(C)C)NC(=O)[C@H](Cc1ccccc1)NC(=O)[C@H](CC(=O)O)NC(=O)[C@H](C)NC(=O)[C@H](CC(C)C)NC(=O)[C@H](CCCNC(=N)N)NC(=O)[C@H](CCC(N)=O)NC(=O)[C@@H](NC(=O)[C@H](C)NC(=O)[C@@H]1CSSC[C@H](NC(=O)[C@@H](N)CCN)C(=O)N[C@@H](CC(N)=O)C(=O)N[C@@H]([C@@H](C)O)C(=O)N[C@@H](C)C(=O)N[C@@H]([C@@H](C)O)C(=O)N1)[C@@H](C)O)C(=O)N[C@@H](CC(C)C)C(=O)N1CCC[C@H]1C(=O)N1CCC[C@H]1C(=O)N[C@H](C(=O)N[C@@H](CC(N)=O)C(=O)N[C@H](C(=O)NCC(=O)N[C@@H](CO)C(=O)N[C@@H](CC(N)=O)C(=O)N[C@H](C(=O)N1C[C@H](O)C[C@H]1C(N)=O)[C@@H](C)O)C(C)C)[C@@H](C)O [PD074] (H-[Dab]CNTATCATQRLADFLRHSSNNLK([γGlu-C20 diacid])PILPPTNVGSNT[Hyp]-NH2; disulfide 2-7) |
| 10.32 | CC[C@H](C)[C@H](NC(=O)[C@@H]1CCCN1C(=O)[C@H](CCCCNC(=O)CC[C@H](NC(=O)CCCCCCCCCCCCCCCCCCC(=O)O)C(=O)O)NC(=O)[C@H](CC(C)C)NC(=O)[C@H](CC(N)=O)NC(=O)[C@H](CC(N)=O)NC(=O)[C@H](CO)NC(=O)[C@H](CO)NC(=O)[C@H](Cc1c[nH]cn1)NC(=O)[C@H](CCCNC(=N)N)NC(=O)[C@H](CC(C)C)NC(=O)[C@H](Cc1ccccc1)NC(=O)[C@H](CC(=O)O)NC(=O)[C@H](C)NC(=O)[C@H](CC(C)C)NC(=O)[C@H](CCCNC(=N)N)NC(=O)[C@H](CCC(N)=O)NC(=O)[C@@H](NC(=O)[C@H](C)NC(=O)[C@@H]1CSSC[C@H](NC(=O)[C@@H](N)CCCN)C(=O)N[C@@H](CC(N)=O)C(=O)N[C@@H]([C@@H](C)O)C(=O)N[C@@H](C)C(=O)N[C@@H]([C@@H](C)O)C(=O)N1)[C@@H](C)O)C(=O)N[C@@H](CC(C)C)C(=O)N1CCC[C@H]1C(=O)N1CCC[C@H]1C(=O)N[C@H](C(=O)N[C@@H](CC(N)=O)C(=O)N[C@H](C(=O)NCC(=O)N[C@@H](CO)C(=O)N[C@@H](CC(N)=O)C(=O)N[C@H](C(=O)N1C[C@H](O)C[C@H]1C(N)=O)[C@@H](C)O)C(C)C)[C@@H](C)O [PD075] (H-[Orn]CNTATCATQRLADFLRHSSNNLK([γGlu-C20 diacid])PILPPTNVGSNT[Hyp]-NH2; disulfide 2-7) |
| 10.40 | CC[C@H](C)[C@H](NC(=O)[C@@H]1CCCN1C(=O)[C@H](CCCCNC(=O)CC[C@H](NC(=O)CCCCCCCCCCCCCCCCCCC(=O)O)C(=O)O)NC(=O)[C@H](CC(C)C)NC(=O)[C@H](CC(N)=O)NC(=O)[C@H](CC(N)=O)NC(=O)[C@H](CO)NC(=O)[C@H](CO)NC(=O)[C@H](Cc1c[nH]cn1)NC(=O)[C@H](CCCNC(=N)N)NC(=O)[C@H](CC(C)C)NC(=O)[C@H](Cc1ccccc1)NC(=O)[C@H](CC(=O)O)NC(=O)[C@H](C)NC(=O)[C@H](CC(C)C)NC(=O)[C@H](CCCNC(=N)N)NC(=O)[C@H](CCC(N)=O)NC(=O)[C@@H](NC(=O)[C@H](C)NC(=O)[C@@H]1CSSC[C@H](NC(=O)[C@@H](N)CCCCN)C(=O)N[C@@H](CC(N)=O)C(=O)N[C@@H]([C@@H](C)O)C(=O)N[C@@H](C)C(=O)N[C@@H]([C@@H](C)O)C(=O)N1)[C@@H](C)O)C(=O)N[C@@H](CC(C)C)C(=O)N1CCC[C@H]1C(=O)N1CCC[C@H]1C(=O)N[C@H](C(=O)N[C@@H](CC(N)=O)C(=O)N[C@H](C(=O)NCC(=O)N[C@@H](CO)C(=O)N[C@@H](CC(N)=O)C(=O)N[C@H](C(=O)N1C[C@H](O)C[C@H]1C(N)=O)[C@@H](C)O)C(C)C)[C@@H](C)O [PD076] (H-KCNTATCATQRLADFLRHSSNNLK([γGlu-C20 diacid])PILPPTNVGSNT[Hyp]-NH2; disulfide 2-7) |
| 10.47 | CC[C@H](C)[C@H](NC(=O)[C@@H]1CCCN1C(=O)[C@H](CCCCNC(=O)CC[C@H](NC(=O)CCCCCCCCCCCCCCCCCCC(=O)O)C(=O)O)NC(=O)[C@H](CC(C)C)NC(=O)[C@H](CC(N)=O)NC(=O)[C@H](CC(N)=O)NC(=O)[C@H](CO)NC(=O)[C@H](CO)NC(=O)[C@H](Cc1c[nH]cn1)NC(=O)[C@H](CCCNC(=N)N)NC(=O)[C@H](CC(C)C)NC(=O)[C@H](Cc1ccccc1)NC(=O)[C@H](CC(=O)O)NC(=O)[C@H](C)NC(=O)[C@H](CC(C)C)NC(=O)[C@H](CCCNC(=N)N)NC(=O)[C@H](CCC(N)=O)NC(=O)[C@@H](NC(=O)[C@H](C)NC(=O)[C@@H]1CSSC[C@H](NC(=O)[C@@H](N)CCCCNC(=N)N)C(=O)N[C@@H](CC(N)=O)C(=O)N[C@@H]([C@@H](C)O)C(=O)N[C@@H](C)C(=O)N[C@@H]([C@@H](C)O)C(=O)N1)[C@@H](C)O)C(=O)N[C@@H](CC(C)C)C(=O)N1CCC[C@H]1C(=O)N1CCC[C@H]1C(=O)N[C@H](C(=O)N[C@@H](CC(N)=O)C(=O)N[C@H](C(=O)NCC(=O)N[C@@H](CO)C(=O)N[C@@H](CC(N)=O)C(=O)N[C@H](C(=O)N1C[C@H](O)C[C@H]1C(N)=O)[C@@H](C)O)C(C)C)[C@@H](C)O [PD077] (H-[hArg]CNTATCATQRLADFLRHSSNNLK([γGlu-C20 diacid])PILPPTNVGSNT[Hyp]-NH2; disulfide 2-7) |
| 10.46 | CC[C@H](C)[C@H](NC(=O)[C@@H]1CCCN1C(=O)[C@H](CCCCNC(=O)CC[C@H](NC(=O)CCCCCCCCCCCCCCCCCCC(=O)O)C(=O)O)NC(=O)[C@H](CC(C)C)NC(=O)[C@H](CC(N)=O)NC(=O)[C@H](CC(N)=O)NC(=O)[C@H](CO)NC(=O)[C@H](CO)NC(=O)[C@H](Cc1c[nH]cn1)NC(=O)[C@H](CCCNC(=N)N)NC(=O)[C@H](CC(C)C)NC(=O)[C@H](Cc1ccccc1)NC(=O)[C@H](CC(=O)O)NC(=O)[C@H](C)NC(=O)[C@H](CC(C)C)NC(=O)[C@H](CCCNC(=N)N)NC(=O)[C@H](CCC(N)=O)NC(=O)[C@@H](NC(=O)[C@H](C)NC(=O)[C@@H]1CSSC[C@H](NC(=O)[C@@H](N)Cc2c[nH]cn2)C(=O)N[C@@H](CC(N)=O)C(=O)N[C@@H]([C@@H](C)O)C(=O)N[C@@H](C)C(=O)N[C@@H]([C@@H](C)O)C(=O)N1)[C@@H](C)O)C(=O)N[C@@H](CC(C)C)C(=O)N1CCC[C@H]1C(=O)N1CCC[C@H]1C(=O)N[C@H](C(=O)N[C@@H](CC(N)=O)C(=O)N[C@H](C(=O)NCC(=O)N[C@@H](CO)C(=O)N[C@@H](CC(N)=O)C(=O)N[C@H](C(=O)N1C[C@H](O)C[C@H]1C(N)=O)[C@@H](C)O)C(C)C)[C@@H](C)O [PD078] (H-HCNTATCATQRLADFLRHSSNNLK([γGlu-C20 diacid])PILPPTNVGSNT[Hyp]-NH2; disulfide 2-7) |

— patent publication US20260166128A1, “HUMAN AMYLIN ANALOG, AND DERIVATIVE THEREOF AND USE THEREOF” (priority 2022, published 2026)
